Data taken from patent publication US4381311A, “Antiinflammatory 4,5-diaryl-α-(polyhalomethyl)-2-thiophenemethanols” (E. I. Du Pont de Nemours and Company, priority 1981, dated 1983).

These compounds were tested on adjuvant-induced arthritis in rats (assay: Established adjuvant-induced arthritis in rats (paw volume of uninjected left hind paw)). Conditions: Rattus norvegicus, 168 h; oral gavage daily, 7 days; established adjuvant-induced arthritis, Lewis male rats; ED50% by inspection of dose-response regression lines; read-out: ED50% Decrease From Control Paw Volume.
Assay type: in vivo, Charles River Lewis male rats
Procedure: A procedure for detecting and comparing the antiinflammatory activity of compounds in this series and standard drugs for which there is a good correlation with human efficacy is the adjuvant-induced arthritis test in rats.
The test procedure employed for determining antiinflammatory activity is described below.
ESTABLISHED ADJUVANT-INDUCED ARTHRITIS IN RATS
Charles River Lewis male rats (130-150 grams) are injected subcutaneously in plantar area of the right hind paw with 0.1 ml of adjuvant (Difco heat-killed, lyophilized Mycobacterium butyricum suspended in mineral oil 5 mg/ml). 20 Non-arthritic controls are injected with mineral oil. The animals are held for 2 weeks to allow development of arthritis. Paw volumes (uninjected, left hind paw) are measured and the adjuvant injected rats are culled and distributed to treatment groups of 10 of equal disease severity. Non-arthritic controls are distributed to 2 groups of 10. The rats are given oral doses of compound or PVA-Acacia (Polyvinyl Alcohol 1%, Gum Acacia, U.S.P. 5%, Methylparaben 0.5%) (10 ml/kg) by gavage on that day and on the 6 following days. One day after the last dose the paw volumes (uninjected, left hind paw) are measured using a Ugo Basile Volume Differential Meter Model 7101. [formula]
Dose-response regression lines of the % decrease are plotted on semi-log paper by visual fit and the ED50% decrease from control paw volume is determined by inspection.

Question: Which ED50 does the source give for `OC(c1cc(-c2ccccc2)c(-c2ccccc2)s1)(C(F)(F)F)C(F)(F)F` [Example 6] here?
Answer: 21 mg/kg

Question: With `OC(c1cc(-c2ccc(F)cc2)c(-c2ccc(Cl)cc2)s1)(C(F)(F)F)C(F)(F)F` [Example 5, 5-(4-Chlorophenyl)-4-(4-fluorophenyl)-α,α-bis(trifluoromethyl)-2-thiophenemethanol] as the compound, how does the ED50 read?
Answer: 9 mg/kg

Question: How did the ED50 turn out when `COc1ccc(-c2cc(C(O)(C(F)(F)F)C(F)(F)F)sc2-c2ccc(SC)cc2)cc1` [Example 4, 4-(4-Methoxyphenyl)-5-(4-methylthiophenyl)-α,α-bis(trifluoromethyl)-2-thiophenemethanol] was run?
Answer: 10 mg/kg

Question: For `OC(c1cc(-c2ccc(F)cc2)c(-c2ccc(F)cc2)s1)(C(F)(F)Cl)C(F)(F)Cl` [Example 8, 4,5-Bis(4-fluorophenyl)-α,α-bis(chlorodifluoromethyl)-2-thiophenemethanol], which ED50 is on record?
Answer: 4.5 mg/kg

Question: For `CCCCC1C(=O)N(c2ccccc2)N(c2ccccc2)C1=O` [Phenylbutazone, reference compound], which ED50 is on record?
Answer: 10 mg/kg

Question: `OC(c1cc(-c2ccc(F)cc2)c(-c2ccc(F)cc2)s1)(C(F)F)C(F)(F)F` (stereo not drawn) [Example 9] was tested. Which ED50 did it give?
Answer: 18 mg/kg

Question: Which ED50 does the source give for `Cc1c(C(O)(C(F)(F)Cl)C(F)(F)Cl)sc(-c2ccc(F)cc2)c1-c1ccc(F)cc1` [Example 27, 3-Methyl-4,5-bis(4-fluorophenyl)-α,α-bis(chlorodifluoromethyl)-2-thiophenemethanol] here?
Answer: 12 mg/kg

Question: For `CC(O)(c1cc(-c2ccc(F)cc2)c(-c2ccc(F)cc2)s1)C(F)(F)F` (stereo not drawn) [Example 7, 4,5-Bis(4-fluorophenyl)-α-methyl-α-trifluoromethyl-2-thiophenemethanol], which ED50 is on record?
Answer: 5.5 mg/kg

Question: For `OC(c1cc(-c2ccc(F)cc2)c(-c2ccc(F)cc2)s1)(C(F)(F)F)C(F)(F)F` [Example 1, 4,5-Bis(4-fluorophenyl)-α,α-bis(trifluoromethyl)-2-thiophenemethanol], which ED50 is on record?
Answer: 10 mg/kg

Question: `OC(c1cc(-c2ccc(F)cc2)c(-c2ccc(F)cc2)s1)(C(F)(F)F)C(F)(F)Cl` (stereo not drawn) [Example 10, 4,5-Bis(4-fluorophenyl)-α-chlorodifluoromethyl-α-trifluoromethyl-2-thiophenemethanol] was tested. Which ED50 did it give?
Answer: 6.8 mg/kg

Same assay, conditions: Rattus norvegicus, po, 168 h, read-out: ED50% Decrease From Control Paw Volume

Question: Which ED50 does the source give for `CC(=O)Oc1ccccc1C(=O)O` [Aspirin, reference compound] here?
Answer: 270 mg/kg

Question: `COc1ccc2c(c1)c(CC(=O)O)c(C)n2C(=O)c1ccc(Cl)cc1` [Indomethacin, reference compound] was tested. Which ED50 did it give?
Answer: 0.25 mg/kg

Same assay, conditions: daily oral dose 27 mg/kg, 7 days; established adjuvant-induced arthritis, rats; p < 0.1 (Ex. 2), p < 0.001 (Ex. 3) vs control, Student's t test

Question: `COc1ccc(-c2cc(C(O)(C(F)(F)F)C(F)(F)F)sc2-c2ccc(OC)cc2)cc1` [Example 3] was tested. Which “Percent Decrease From Control Paw Volume” value did it give?
Answer: 47%

Question: `OC(c1cc(-c2ccc(F)cc2)c(-c2ccc(F)cc2)s1)(C(F)(F)Cl)C(F)(Cl)Cl` (stereo not drawn) [Example 2] was tested. Which “Percent Decrease From Control Paw Volume” value did it give?
Answer: 20%

Same assay, conditions: daily oral dose 51 mg/kg, 7 days; established adjuvant-induced arthritis, rats; p < 0.001 vs control, Student's t test

Question: With `CC(=O)OC(c1cc(-c2ccc(F)cc2)c(-c2ccc(F)cc2)s1)(C(F)(F)Cl)C(F)(F)Cl` [Example 29, 4,5-Bis(4-fluorophenyl)-α,α-bis(chlorodifluoromethyl)-2-thiophenemethanol, acetate] as the compound, how does the “Percent Decrease From Control Paw Volume” value read?
Answer: 31%
